Data set [1] is described as follows: The drug is tested on Z-012 corresponding to metagenome with ENA study accession number: PRJEB37062 and ENA sample accession number: ERS12561812 for biotransformation under anaerobic condition. The drug concentrations were measured over 9 timepoints collected between 0 and 24 hours of incubation by liquid-chromatography-coupled mass spectrometry (LC–MS). Conditions: 2 µM.

Data set [2] can be described thus: The drug is tested on Z-011 corresponding to mouse gut metagenome with ENA study accession number: PRJEB37062 and ENA sample accession number: ERS12561811 for biotransformation under anaerobic condition. The drug concentrations were measured over 9 timepoints collected between 0 and 24 hours of incubation by liquid-chromatography-coupled mass spectrometry (LC–MS). Conditions: 2 µM.

Data set [3] in a line: The drug is tested on Z-007 corresponding to rat gut metagenome with ENA study accession number: PRJEB37062 and ENA sample accession number: ERS12561807 for biotransformation under anaerobic condition. The drug concentrations were measured over 9 timepoints collected between 0 and 24 hours of incubation by liquid-chromatography-coupled mass spectrometry (LC–MS). Particulars: 2 µM.

Data set [4] in a line: The drug is tested on Z-006 corresponding to mouse gut metagenome with ENA study accession number: PRJEB37062 and ENA sample accession number: ERS12561806 for biotransformation under anaerobic condition. The drug concentrations were measured over 9 timepoints collected between 0 and 24 hours of incubation by liquid-chromatography-coupled mass spectrometry (LC–MS). Particulars: 2 µM.

Data set [5] can be described thus: The drug is tested on Z-024 corresponding to pig gut metagenome with ENA study accession number: PRJEB37062 and ENA sample accession number: ERS12561823 for biotransformation under anaerobic condition. The drug concentrations were measured over 9 timepoints collected between 0 and 24 hours of incubation by liquid-chromatography-coupled mass spectrometry (LC–MS). Particulars: 2 µM.

A short description of data set [6]: The drug is tested on Z-001 corresponding to mouse gut metagenome with ENA study accession number: PRJEB37062 and ENA sample accession number: ERS12561801 for biotransformation under anaerobic condition. The drug concentrations were measured over 9 timepoints collected between 0 and 24 hours of incubation by liquid-chromatography-coupled mass spectrometry (LC–MS). Particulars: 2 µM.

The nature of data set [7]: The drug is tested on Z-004 corresponding to metagenome with ENA study accession number: PRJEB37062 and ENA sample accession number: ERS12561804 for biotransformation under anaerobic condition. The drug concentrations were measured over 9 timepoints collected between 0 and 24 hours of incubation by liquid-chromatography-coupled mass spectrometry (LC–MS). Conditions: 2 µM.

A short description of data set [8]: The drug is tested on Z-003 corresponding to pig gut metagenome with ENA study accession number: PRJEB37062 and ENA sample accession number: ERS12561803 for biotransformation under anaerobic condition. The drug concentrations were measured over 9 timepoints collected between 0 and 24 hours of incubation by liquid-chromatography-coupled mass spectrometry (LC–MS). Conditions: 2 µM.

Data set [9] is described as follows: The drug is tested on Z-022 corresponding to mouse gut metagenome with ENA study accession number: PRJEB37062 and ENA sample accession number: ERS12561821 for biotransformation under anaerobic condition. The drug concentrations were measured over 9 timepoints collected between 0 and 24 hours of incubation by liquid-chromatography-coupled mass spectrometry (LC–MS). Conditions: 2 µM.

The nature of data set [10]: The drug is tested on Z-002 corresponding to rabbit gut metagenome with ENA study accession number: PRJEB37062 and ENA sample accession number: ERS12561802 for biotransformation under anaerobic condition. The drug concentrations were measured over 9 timepoints collected between 0 and 24 hours of incubation by liquid-chromatography-coupled mass spectrometry (LC–MS). Particulars: 2 µM.

The nature of data set [11]: The drug is tested on Z-008 corresponding to metagenome with ENA study accession number: PRJEB37062 and ENA sample accession number: ERS12561808 for biotransformation under anaerobic condition. The drug concentrations were measured over 9 timepoints collected between 0 and 24 hours of incubation by liquid-chromatography-coupled mass spectrometry (LC–MS). Particulars: 2 µM.

A short description of data set [12]: The drug is tested on Z-021 corresponding to metagenome with ENA study accession number: PRJEB37062 and ENA sample accession number: ERS12561820 for biotransformation under anaerobic condition. The drug concentrations were measured over 9 timepoints collected between 0 and 24 hours of incubation by liquid-chromatography-coupled mass spectrometry (LC–MS). Conditions: 2 µM.

A short description of data set [13]: The drug is tested on Z-005 corresponding to metagenome with ENA study accession number: PRJEB37062 and ENA sample accession number: ERS12561805 for biotransformation under anaerobic condition. The drug concentrations were measured over 9 timepoints collected between 0 and 24 hours of incubation by liquid-chromatography-coupled mass spectrometry (LC–MS). Conditions: 2 µM.

The nature of data set [14]: The drug is tested on Z-027 corresponding to metagenome with ENA study accession number: PRJEB37062 and ENA sample accession number: ERS12561826 for biotransformation under anaerobic condition. The drug concentrations were measured over 9 timepoints collected between 0 and 24 hours of incubation by liquid-chromatography-coupled mass spectrometry (LC–MS). Conditions: 2 µM.

A short description of data set [15]: The drug is tested on Z-028 corresponding to mouse gut metagenome with ENA study accession number: PRJEB37062 and ENA sample accession number: ERS12561827 for biotransformation under anaerobic condition. The drug concentrations were measured over 9 timepoints collected between 0 and 24 hours of incubation by liquid-chromatography-coupled mass spectrometry (LC–MS). Particulars: 2 µM.

Data set [16] can be described thus: The drug is tested on Z-026 corresponding to metagenome with ENA study accession number: PRJEB37062 and ENA sample accession number: ERS12561825 for biotransformation under anaerobic condition. The drug concentrations were measured over 9 timepoints collected between 0 and 24 hours of incubation by liquid-chromatography-coupled mass spectrometry (LC–MS). Conditions: 2 µM.

Data set [17] can be described thus: The drug is tested on Z-010 corresponding to metagenome with ENA study accession number: PRJEB37062 and ENA sample accession number: ERS12561810 for biotransformation under anaerobic condition. The drug concentrations were measured over 9 timepoints collected between 0 and 24 hours of incubation by liquid-chromatography-coupled mass spectrometry (LC–MS). Particulars: 2 µM.

Data set [18] is described as follows: The drug is tested on Z-023 corresponding to metagenome with ENA study accession number: PRJEB37062 and ENA sample accession number: ERS12561822 for biotransformation under anaerobic condition. The drug concentrations were measured over 9 timepoints collected between 0 and 24 hours of incubation by liquid-chromatography-coupled mass spectrometry (LC–MS). Particulars: 2 µM.

The nature of data set [19]: The drug is tested on Z-009 corresponding to pig gut metagenome with ENA study accession number: PRJEB37062 and ENA sample accession number: ERS12561809 for biotransformation under anaerobic condition. The drug concentrations were measured over 9 timepoints collected between 0 and 24 hours of incubation by liquid-chromatography-coupled mass spectrometry (LC–MS). Particulars: 2 µM.

For data set [20] the following is noted: human gut metagenome, 24 h, 2 µM.
The nature of data set [21]: The drug is tested on WLS-170 corresponding to human gut metagenome with ENA study accession number: PRJEB37062 and ENA sample accession number: ERS12561762 for biotransformation under anaerobic condition. The drug concentrations were measured over 9 timepoints collected between 0 and 24 hours of incubation by liquid-chromatography-coupled mass spectrometry (LC–MS). Conditions: 2 µM.

The conditions of data set [22]: human gut metagenome, 24 h, 2 µM. This is another data set of the same source.
Data set [23] is described as follows: The drug is tested on WLS-098 corresponding to human gut metagenome with ENA study accession number: PRJEB37062 and ENA sample accession number: ERS12561754 for biotransformation under anaerobic condition. The drug concentrations were measured over 9 timepoints collected between 0 and 24 hours of incubation by liquid-chromatography-coupled mass spectrometry (LC–MS). Conditions: 2 µM.

The conditions of data set [24]: human gut metagenome, 24 h, 2 µM. This is another data set of the same source.
The conditions of data set [25]: human gut metagenome, 24 h, 2 µM. The source holds these as a separate data set.
For data set [26] the following is noted: human gut metagenome, 24 h, 2 µM. This is another data set of the same source.
Data set [27] can be described thus: The drug is tested on WLS-370 corresponding to human gut metagenome with ENA study accession number: PRJEB37062 and ENA sample accession number: ERS12561793 for biotransformation under anaerobic condition. The drug concentrations were measured over 9 timepoints collected between 0 and 24 hours of incubation by liquid-chromatography-coupled mass spectrometry (LC–MS). Conditions: 2 µM.

The conditions of data set [28]: human gut metagenome, 24 h, 2 µM. The source holds these as a separate data set.
For data set [29] the following is noted: human gut metagenome, 24 h, 2 µM. This is another data set of the same source.
The conditions of data set [30]: human gut metagenome, 24 h, 2 µM. The source holds these as a separate data set.
The conditions of data set [31]: human gut metagenome, 24 h, 2 µM. This is another data set of the same source.
The conditions of data set [32]: human gut metagenome, 24 h, 2 µM. This is another data set of the same source.

The structures appear in SMILES notation.
Also: call rule not given here.

Turning to `C[C@H]1C[C@H]2[C@@H]3CCC4=CC(=O)C=C[C@]4(C)[C@@]3(F)[C@@H](O)C[C@]2(C)[C@@]1(O)C(=O)CO` [BETAMETHASONE], the “Bacterial Biotransformation” value is “Compound metabolized” in [1]; “Compound NOT metabolized” in data set [2]; “Compound NOT metabolized” in data set [3]; “Compound NOT metabolized” in [4]; “Compound metabolized” in data set [5]; “Compound NOT metabolized” in [6]. The “Bacterial Biotransformation” value in data set [7] was “Compound metabolized”; in data set [8] it was “Compound metabolized”; in data set [9], “Compound metabolized”; in data set [10] it was “Compound metabolized”; in data set [11], “Compound NOT metabolized”; in data set [12], “Compound metabolized”. In addition, the “Bacterial Biotransformation” value in data set [13] is on record as “Compound NOT metabolized”; in [14], “Compound NOT metabolized”; in [15], “Compound NOT metabolized”; in data set [16], “Compound metabolized”; in data set [17], “Compound metabolized”; in data set [18], “Compound metabolized”. The “Bacterial Biotransformation” value in data set [19] is given as “Compound metabolized”.
As to `CN(C)CCOC(c1ccc(Cl)cc1)c1ccccn1.O=C(O)/C=C\C(=O)O` (stereo not given) [CARBINOXAMINE MALEATE], the “Bacterial Biotransformation” value is listed as “Compound NOT metabolized” in data set [20]; “Compound metabolized” in [21]; “Compound NOT metabolized” in data set [22]; “Compound NOT metabolized” in data set [23]; “Compound metabolized” in data set [24]; “Compound NOT metabolized” in [25]. Also, the “Bacterial Biotransformation” value in [26] is listed as “Compound metabolized”; in data set [27], “Compound NOT metabolized”; in [28], “Compound NOT metabolized”; in data set [29] it was “Compound NOT metabolized”; in [30] it was “Compound NOT metabolized”; in data set [31], “Compound NOT metabolized”. Moreover, the “Bacterial Biotransformation” value in [32] was “Compound metabolized”.
Consider `CN1CCN(CCCN2c3ccccc3Sc3ccc(Cl)cc32)CC1.O=S(=O)(O)CCS(=O)(=O)O` [PROCHLORPERAZINE EDISYLATE], for which the “Bacterial Biotransformation” value in data set [1] is “Compound metabolized”; in data set [4] it was “Compound NOT metabolized”; in data set [10], “Compound NOT metabolized”; in [11], “Compound NOT metabolized”; in data set [12], “Compound NOT metabolized”; in [16], “Compound metabolized”. Also, the “Bacterial Biotransformation” value in data set [18] and in data set [19] was “Compound metabolized” in each case.

Source of the values: ChEMBL document CHEMBL5724914, “Linking interpersonal differences in gut microbiota composition and drug biotransformation activity” (2024).
